Laboratory results: patent US9249087B2, “HDAC inhibitors and therapeutic methods using the same” (THE BOARD OF TRUSTEES OF THE UNIVERSITY OF ILLINOIS, priority 2011, dated 2016)

Assays:
[1] = system: traumatic brain injury in rats; details: following traumatic brain injury in rats; cited from earlier work
primary cortical neurons = assay: HCA oxidative stress neuroprotection assay (MTT); type: cell-based
Source text: It has been shown that HDAC6 inhibition protects against neuronal degeneration and stimulates neurite outgrowth in dorsal root ganglion neurons, therefore indicating methods of treating CNS diseases. Accordingly, present HDACI compounds were examined in a model of oxidative stress induced by homocysteic acid (HCA). This model leads to depletion of glutathione, the major intracellular antioxidant. HDAC6 inhibition rescues neuronal death in this model, possibly by causing hyperacetylation of peroxiredoxins. […] (A. P. Kozikowski et al., J. Med. Chem. 2007, 50, 3054-61.)
FIGS. 1 and 2 contain neuroprotection bar graphs of the HCA oxidative stress test assay. Neurons were treated with TSA (FIG. 1) or a present HDACI compound (FIG. 2), alone or with the addition of HCA (homocysteic acid).
The data summarized in FIGS. 1 and 2 was obtained according to the following neuroprotective assay. Primary cortical neuron cultures were obtained from the cerebral cortex of fetal Sprague-Dawley rats (embryonic day 17). All experiments were initiated 24 hours after plating. Under these conditions, the cells are not susceptible to glutamate-mediated excitotoxicity. […] Viability was assessed after 24 hours by the MTT assay (3-(4,5-dimethylthiazol-2-yl)-2,5-diphenyltetrazolium bromide) method.

HDAC7 = HDAC7 (Homo sapiens (Human), UniProt Q8WUI4); details: read-out: HDAC Isoform IC50 (μM) 7
HDAC2 = HDAC2 (Homo sapiens (Human), UniProt Q92769); assay: HDAC2 fluorogenic peptide deacetylation inhibition assay; type: biochemical; details: average of two experiments; read-out: HDAC Isoform IC50 (μM) 2
HDAC5 = HDAC5 (Homo sapiens (Human), UniProt Q9UQL6); assay: HDAC5 inhibition assay (Acetyl-Lys(trifluoroacetyl)-AMC substrate); type: biochemical; details: average of two experiments; read-out: HDAC Isoform IC50 (μM) 5
mice with colitis = assay: colitis in mice; type: in vivo; details: treatment begun once colitis had developed
Source text: Studies of autoimmunity also are undertaken. In this case, interruption of existing disease is especially important and HDAC6 targeting can be efficacious without any requirement for additional therapy (in contrast to a need for brief low-dose RPM in the very aggressive, fully MHC-mismatched transplant models). […] These studies are extended by assessing whether deletion of HDAC6 in Tregs (Foxp3/Cre) vs. T cells (CD4=Cre) vs. DC (CD11c-Cre) differentially affect the development and severity of colitis. Similarly, control of colitis is assessed by inducing HDAC6 deletion at varying intervals after the onset of colitis with tamoxifen-regulated Cre.

HDAC2, sequence (Q92769 whole entry, canonical isoform): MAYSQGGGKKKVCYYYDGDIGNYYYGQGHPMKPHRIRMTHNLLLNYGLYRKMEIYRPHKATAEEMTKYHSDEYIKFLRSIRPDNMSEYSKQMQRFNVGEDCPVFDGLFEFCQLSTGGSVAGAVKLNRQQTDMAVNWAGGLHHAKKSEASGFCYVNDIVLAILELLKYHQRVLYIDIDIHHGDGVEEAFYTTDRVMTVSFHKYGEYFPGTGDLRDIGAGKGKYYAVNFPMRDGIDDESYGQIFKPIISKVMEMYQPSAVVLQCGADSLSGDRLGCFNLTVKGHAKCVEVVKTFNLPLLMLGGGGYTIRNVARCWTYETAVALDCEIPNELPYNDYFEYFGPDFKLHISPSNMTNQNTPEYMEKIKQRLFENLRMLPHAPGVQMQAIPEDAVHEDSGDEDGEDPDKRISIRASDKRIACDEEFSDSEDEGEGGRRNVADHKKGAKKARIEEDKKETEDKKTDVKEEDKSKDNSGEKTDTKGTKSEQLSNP
HDAC5, sequence (Q9UQL6 whole entry, canonical isoform): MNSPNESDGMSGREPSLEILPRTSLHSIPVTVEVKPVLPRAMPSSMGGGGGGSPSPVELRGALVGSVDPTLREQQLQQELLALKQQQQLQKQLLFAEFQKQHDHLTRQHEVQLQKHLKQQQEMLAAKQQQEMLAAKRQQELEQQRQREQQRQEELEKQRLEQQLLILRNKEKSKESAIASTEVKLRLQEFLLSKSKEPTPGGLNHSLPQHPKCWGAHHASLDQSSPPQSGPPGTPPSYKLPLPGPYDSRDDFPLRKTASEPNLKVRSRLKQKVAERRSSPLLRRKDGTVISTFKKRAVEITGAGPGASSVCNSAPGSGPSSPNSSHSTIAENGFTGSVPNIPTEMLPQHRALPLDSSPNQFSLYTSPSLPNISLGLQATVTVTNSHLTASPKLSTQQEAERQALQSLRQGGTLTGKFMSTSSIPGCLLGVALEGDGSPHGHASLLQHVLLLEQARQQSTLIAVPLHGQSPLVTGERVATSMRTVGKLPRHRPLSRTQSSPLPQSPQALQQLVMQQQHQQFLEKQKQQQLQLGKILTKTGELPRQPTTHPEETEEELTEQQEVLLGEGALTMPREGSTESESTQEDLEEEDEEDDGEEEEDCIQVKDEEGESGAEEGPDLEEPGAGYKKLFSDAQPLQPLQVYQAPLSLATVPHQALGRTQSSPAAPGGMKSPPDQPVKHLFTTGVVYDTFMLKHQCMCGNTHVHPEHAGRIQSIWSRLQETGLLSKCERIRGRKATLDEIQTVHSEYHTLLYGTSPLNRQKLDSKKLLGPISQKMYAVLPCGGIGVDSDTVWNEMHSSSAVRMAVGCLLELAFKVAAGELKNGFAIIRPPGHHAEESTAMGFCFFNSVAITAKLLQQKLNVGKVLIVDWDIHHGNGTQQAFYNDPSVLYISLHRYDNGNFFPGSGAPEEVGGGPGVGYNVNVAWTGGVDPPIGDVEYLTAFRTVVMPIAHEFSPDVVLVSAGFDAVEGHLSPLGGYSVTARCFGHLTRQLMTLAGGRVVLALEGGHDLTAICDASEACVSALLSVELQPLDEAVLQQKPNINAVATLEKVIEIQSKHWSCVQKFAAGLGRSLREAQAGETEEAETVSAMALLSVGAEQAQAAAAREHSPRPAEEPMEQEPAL
HDAC7, sequence (Q8WUI4 whole entry, canonical isoform): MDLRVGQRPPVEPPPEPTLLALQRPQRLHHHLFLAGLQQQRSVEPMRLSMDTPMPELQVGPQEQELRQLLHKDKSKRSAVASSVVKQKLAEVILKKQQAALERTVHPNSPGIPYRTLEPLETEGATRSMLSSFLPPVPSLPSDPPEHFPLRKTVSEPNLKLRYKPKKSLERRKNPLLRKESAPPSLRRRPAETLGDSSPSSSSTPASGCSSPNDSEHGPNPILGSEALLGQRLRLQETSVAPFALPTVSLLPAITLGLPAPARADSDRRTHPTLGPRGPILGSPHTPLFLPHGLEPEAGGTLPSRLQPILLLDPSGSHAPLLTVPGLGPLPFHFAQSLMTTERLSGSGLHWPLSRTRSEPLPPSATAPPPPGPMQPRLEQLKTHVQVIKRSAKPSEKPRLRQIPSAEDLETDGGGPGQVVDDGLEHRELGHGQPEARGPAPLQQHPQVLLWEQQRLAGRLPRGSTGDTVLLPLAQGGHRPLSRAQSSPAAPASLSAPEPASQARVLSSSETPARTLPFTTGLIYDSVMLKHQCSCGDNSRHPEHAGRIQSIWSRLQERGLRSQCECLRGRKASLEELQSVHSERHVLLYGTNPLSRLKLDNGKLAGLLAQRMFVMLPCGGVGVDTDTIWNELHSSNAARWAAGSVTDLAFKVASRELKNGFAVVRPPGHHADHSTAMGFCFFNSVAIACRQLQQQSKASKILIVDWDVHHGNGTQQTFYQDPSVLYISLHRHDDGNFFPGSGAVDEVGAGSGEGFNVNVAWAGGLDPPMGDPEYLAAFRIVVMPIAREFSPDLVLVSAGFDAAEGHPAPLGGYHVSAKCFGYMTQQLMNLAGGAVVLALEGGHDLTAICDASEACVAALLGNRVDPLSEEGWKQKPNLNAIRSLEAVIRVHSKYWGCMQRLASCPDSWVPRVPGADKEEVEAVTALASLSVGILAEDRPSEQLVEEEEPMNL

In the case of `CN(C)c1ccc(C(=O)NCCCCCNC(=O)CS)cc1` [DMA-PB, 4-dimethylamino-N-[5-(2-mercaptoacetylamino)pentyl]benzamide], the “histone H3 acetylation” value [1] is given as “increase histone H3 acetylation” and the microglia inflammatory response [1] is given as “reduce microglia inflammatory response”.

In the case of `CC(/C=C/C(=O)NO)=C\[C@@H](C)C(=O)c1ccc(N(C)C)cc1` [TSA, Trichostatin A], the “neuroprotection in HCA-induced neurodegeneration assay” value (primary cortical neurons; 0.5 μM, HCA 5 mM, viability by MTT after 24 hours) is reported as “moderately neuroprotective” and the “neurotoxicity to primary cortical neurons” value (primary cortical neurons; higher concentrations than 0.5 μM) is reported as “dose-dependant neurotoxicity”.

With `O=C(CCCCCCC(=O)Nc1ccc([C@H]2O[C@@H](CSc3nc(-c4ccccc4)c(-c4ccccc4)o3)C[C@@H](c3ccc(CO)cc3)O2)cc1)NO` [Tubacin] the IC50 (HDAC7) was 9.7 µM, the IC50 (HDAC2) was 6.27 µM and the IC50 (HDAC5) was 3.35 µM. For the same molecule, the “rescue of mice with established colitis” value (mice with colitis) was “able to rescue mice”.
